In PubChem BioAssay (NCI):
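96-well plates; 48 h exposure; 5 concentrations. Endpoints by linear interpolation between flanking doses. Not reached: highest tested concentration assigned. Here, GI50 denotes the concentration required for 50% inhibition of growth. Definition used: TGI = concentration required for complete inhibition of growth.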

Legend:
Assay in all cases: DTP human tumour cell line panel, 48 h
[1] = test system: NCI-H460 lung
[2] = test system: SK-OV-3 ovarian
[3] = test system: DU-145 prostate
[4] = test system: SK-MEL-2 melanoma
[5] = test system: ACHN renal
[6] = test system: SNB-75 CNS
[7] = test system: SF-268 CNS
[8] = test system: OVCAR-4 ovarian
[9] = test system: U251 CNS
[10] = test system: OVCAR-3 ovarian
[11] = test system: NCI/ADR-RES ovarian
[12] = test system: SW-620 colon
[13] = test system: KM12 colon
[14] = test system: PC-3 prostate
[15] = test system: SN12C renal
[16] = test system: UACC-62 melanoma
[17] = test system: 786-0 renal
[18] = test system: HOP-92 NSCLC
[19] = test system: HCC-2998 colon
[20] = test system: CAKI-1 renal
[21] = test system: NCI-H522 lung
[22] = test system: T-47D breast
[23] = test system: SK-MEL-28 melanoma
[24] = test system: UO-31 renal
[25] = test system: IGROV1 ovarian
[26] = test system: NCI-H226 lung
[27] = test system: MALME-3M melanoma
[28] = test system: EKVX NSCLC
[29] = test system: UACC-257 melanoma
[30] = test system: TK-10 renal
[31] = test system: MDA-MB-435
[32] = test system: RXF 393 renal
[33] = test system: MDA-MB-468 breast
[34] = test system: MCF7 breast
[35] = test system: RPMI-8226 leukemia
[36] = test system: HCT-15 colon
[37] = test system: COLO 205 colon
[38] = test system: LOX IMVI melanoma
[39] = test system: HS 578T breast
[40] = test system: M14 melanoma
[41] = test system: NCI-H23 lung
[42] = test system: OVCAR-5 ovarian
[43] = test system: SR leukemia
[44] = test system: HL-60(TB) leukemia
[45] = test system: SF-295 CNS
[46] = test system: HOP-62 NSCLC
[47] = test system: SK-MEL-5 melanoma
[48] = test system: A549 NSCLC
[49] = test system: HCT-116 colon
[50] = test system: HT29 colon
[51] = test system: SNB-19 CNS
[52] = test system: SF-539 CNS
[53] = test system: A498 renal
[54] = test system: BT-549 breast
[55] = test system: MDA-MB-231 breast
[56] = test system: CCRF-CEM leukemia
[57] = test system: K-562 leukemia
[58] = test system: OVCAR-8 ovarian
[59] = test system: MOLT-4 leukemia

## CC1(C)CC[C@]2(C(=O)N3CCOCC3)CC[C@]3(C)C(=CC[C@@H]4[C@@]5(C)CC[C@H](NCO)C(C)(C)[C@@H]5CC[C@]43C)[C@H]2C1
[1]
  GI50: 1.02 µM
  TGI: 3.29 µM
[2]
  GI50: 6.81 µM
  TGI: 13.3 µM
[3]
  GI50: 1.38 µM
  TGI: 5.01 µM
[4]
  GI50: 5.95 µM
  TGI: 11.4 µM
[5]
  GI50: 1.72 µM
  TGI: 6.11 µM
[6]
  GI50: 4.39 µM
  TGI: 9.51 µM
[7]
  GI50: 4.78 µM
  TGI: 10.4 µM
[8]
  GI50: 2.5 µM
  TGI: 7.62 µM
[9]
  GI50: 4.14 µM
  TGI: 9.49 µM
[10]
  GI50: 0.961 µM
  TGI: 3.43 µM
[11]
  GI50: 1.99 µM
  TGI: 7.09 µM
[12]
  GI50: 0.552 µM
  TGI: 1.06 µM
[13]
  GI50: 1.14 µM
  TGI: 4.26 µM
[14]
  GI50: 4.6 µM
  TGI: 10.6 µM
[15]
  GI50: 2.36 µM
  TGI: 6.94 µM
[16]
  GI50: 5.86 µM
  TGI: 10.7 µM
[17]
  GI50: 0.596 µM
  TGI: 1.31 µM
[18]
  GI50: 5.25 µM
  TGI: 11.3 µM
[19]
  GI50: 0.836 µM
  TGI: 2.31 µM
[20]
  GI50: 0.915 µM
  TGI: 2.98 µM
[21]
  GI50: 6.27 µM
  TGI: 13.8 µM
[22]
  GI50: 5.33 µM
  TGI: 15.6 µM
[23]
  GI50: 5.16 µM
  TGI: 9.94 µM
[24]
  GI50: 4.62 µM
  TGI: 9.34 µM
[25]
  GI50: 4.66 µM
  TGI: 9.78 µM
[26]
  GI50: 6.61 µM
  TGI: 13.6 µM
[27]
  GI50: 5.2 µM
  TGI: 9.97 µM
[28]
  GI50: 4.57 µM
  TGI: 10 µM
[29]
  GI50: 5.65 µM
  TGI: 10.7 µM
[30]
  GI50: 7.05 µM
  TGI: 13.5 µM
[31]
  GI50: 0.998 µM
  TGI: 5.1 µM
[32]
  GI50: 0.886 µM
  TGI: 2.69 µM
[33]
  GI50: 0.647 µM
  TGI: 1.4 µM
[34]
  GI50: 0.73 µM
  TGI: 2.06 µM
[35]
  GI50: 1.42 µM
  TGI: 7.17 µM
[36]
  GI50: 0.715 µM
  TGI: 1.76 µM
[37]
  GI50: 0.795 µM
  TGI: 1.99 µM
[38]
  GI50: 0.576 µM
  TGI: 1.06 µM
[39]
  GI50: 5.22 µM
  TGI: 12.5 µM
[40]
  GI50: 4.11 µM
  TGI: 9.71 µM
[41]
  GI50: 3.74 µM
  TGI: 8.72 µM
[42]
  GI50: 4.47 µM
  TGI: 9.1 µM
[43]
  GI50: 0.682 µM
  TGI: 2.14 µM
[44]
  GI50: 0.484 µM
  TGI: 1.22 µM
[45]
  GI50: 1.86 µM
  TGI: 6.7 µM
[46]
  GI50: 8.18 µM
  TGI: 18.6 µM
[47]
  GI50: 5.65 µM
  TGI: 11 µM
[48]
  GI50: 1.58 µM
  TGI: 7.01 µM
[49]
  GI50: 0.696 µM
  TGI: 1.58 µM
[50]
  GI50: 1.96 µM
  TGI: 18.6 µM
[51]
  GI50: 5.71 µM
  TGI: 11.3 µM
[52]
  GI50: 1.12 µM
  TGI: 4.29 µM
[53]
  GI50: 5.59 µM
  TGI: 10.9 µM
[54]
  GI50: 6.38 µM
  TGI: 12.9 µM
[55]
  GI50: 1.83 µM
  TGI: 5.89 µM
[56]
  GI50: 1.04 µM
  TGI: 3.23 µM
[57]
  GI50: 0.811 µM
  TGI: 33.8 µM
[58]
  GI50: 1.52 µM
  TGI: 6.3 µM
[59]
  GI50: 0.767 µM
  TGI: 2.68 µM

## COc1cccc2nc(Nc3cccc(NC(=O)c4ccc(CN5CCN(C)CC5)c(C(F)(F)F)c4)c3)ccc12
[1]
  GI50: 1.71 µM
  TGI: 3.19 µM
[2]
  GI50: 9.22 µM
  TGI: 22.6 µM
[3]
  GI50: 1.98 µM
  TGI: 4.42 µM
[4]
  GI50: 3.52 µM
  TGI: 12.2 µM
[5]
  GI50: 2.05 µM
  TGI: 4.4 µM
[6]
  GI50: 1.6 µM
  TGI: 4.37 µM
[7]
  GI50: 1.69 µM
  TGI: 3.75 µM
[8]
  GI50: 2.21 µM
  TGI: 5.94 µM
[9]
  GI50: 1.92 µM
  TGI: 3.71 µM
[10]
  GI50: 2.15 µM
  TGI: 5.17 µM
[11]
  GI50: 2.28 µM
  TGI: 5.95 µM
[12]
  GI50: 1.73 µM
  TGI: 3.27 µM
[13]
  GI50: 2.13 µM
  TGI: 4.59 µM
[14]
  GI50: 1.7 µM
  TGI: 4.46 µM
[15]
  GI50: 1.71 µM
  TGI: 3.3 µM
[16]
  GI50: 1.75 µM
  TGI: 3.22 µM
[18]
  GI50: 1.5 µM
  TGI: 3.86 µM
[19]
  GI50: 1.99 µM
  TGI: 3.45 µM
[20]
  GI50: 1.81 µM
  TGI: 4.13 µM
[21]
  GI50: 1.79 µM
  TGI: 3.65 µM
[22]
  GI50: 2.28 µM
  TGI: 5.78 µM
[23]
  GI50: 1.71 µM
  TGI: 3.13 µM
[24]
  GI50: 1.64 µM
  TGI: 3.18 µM
[25]
  GI50: 2.25 µM
  TGI: 4.82 µM
[26]
  GI50: 4.63 µM
  TGI: 15.8 µM
[27]
  GI50: 1.65 µM
  TGI: 3.08 µM
[28]
  GI50: 2.1 µM
  TGI: 4.71 µM
[29]
  GI50: 1.98 µM
  TGI: 3.85 µM
[30]
  GI50: 2.15 µM
  TGI: 4.65 µM
[31]
  GI50: 1.68 µM
  TGI: 3.21 µM
[32]
  GI50: 1.73 µM
  TGI: 3.96 µM
[33]
  GI50: 1.92 µM
  TGI: 3.89 µM
[34]
  GI50: 1.57 µM
  TGI: 3.2 µM
[35]
  GI50: 2.78 µM
  TGI: 8.34 µM
[36]
  GI50: 1.78 µM
  TGI: 3.56 µM
[37]
  GI50: 1.79 µM
  TGI: 3.38 µM
[38]
  GI50: 1.74 µM
  TGI: 3.26 µM
[39]
  GI50: 1.84 µM
  TGI: 4.57 µM
[40]
  GI50: 1.76 µM
  TGI: 3.63 µM
[41]
  GI50: 1.91 µM
  TGI: 3.73 µM
[42]
  GI50: 1.84 µM
  TGI: 3.71 µM
[43]
  GI50: 1.85 µM
  TGI: 5.65 µM
[44]
  GI50: 1.22 µM
  TGI: 4.09 µM
[45]
  GI50: 1.77 µM
  TGI: 3.31 µM
[46]
  GI50: 1.56 µM
  TGI: 3.11 µM
[47]
  GI50: 1.62 µM
  TGI: 3.02 µM
[48]
  GI50: 2.44 µM
  TGI: 7.8 µM
[49]
  GI50: 1.82 µM
  TGI: 3.57 µM
[51]
  GI50: 1.78 µM
  TGI: 3.38 µM
[52]
  GI50: 1.64 µM
  TGI: 3.01 µM
[53]
  GI50: 2 µM
  TGI: 4.98 µM
[54]
  GI50: 7.01 µM
  TGI: 19.2 µM
[55]
  GI50: 1.77 µM
  TGI: 3.39 µM
[56]
  GI50: 2.1 µM
  TGI: 6.43 µM
[57]
  GI50: 2.7 µM
  TGI: > 100 µM
[58]
  GI50: 3.09 µM
  TGI: 10.7 µM
[59]
  GI50: 1.45 µM
  TGI: 7.59 µM
